# Results from US8952024B2, “Herbicidal pyrimidone derivatives” (E I du Pont de Nemours and Company, priority 2009, dated 2015).
# Experiments:
# Format in all cases: in vivo
# [1] = tested on: barnyardgrass (Echinochloa crus-galli); assay: Test B flooded paddy test; conditions: for Plant response rating, Flood, Barnyardgrass: 250 g ai/ha, flooded paddy test, visual rating on 0 to 100 scale (0 no effect, 100 complete control) after 13 to 15 days; for Plant response rating, Barnyardgrass: Flood (flooded paddy test), 13 to 15 days; for Barnyardgrass plant response rating: Flood, 31 g ai/ha, scale 0 to 100 (0 no effect, 100 complete control)
# Method in brief: (§1)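 Rice, umbrella sedge, ducksalad and barnyardgrass were grown to the 2-leaf stage, flooded to 3 cm, and compound was applied directly to the paddy water, with that depth kept throughout. After 13 to 15 days in the greenhouse, plants were visually rated against controls on a 0 (no effect) to 100 (complete control) scale.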
# [2] = tested on: ducksalad (Heteranthera limosa); assay: Test B flooded paddy test; conditions: for Plant response rating, Flood, Ducksalad: 250 g ai/ha, flooded paddy test, visual rating on 0 to 100 scale (0 no effect, 100 complete control) after 13 to 15 days; for Plant response rating, Ducksalad: Flood (flooded paddy test), 13 to 15 days; for Ducksalad plant response rating: Flood, 31 g ai/ha, scale 0 to 100 (0 no effect, 100 complete control)
# Method in brief: as §1
# rice (Oryza sativa) = assay: Test B flooded paddy test; conditions: for Plant response rating, Flood, Rice: 250 g ai/ha, flooded paddy test, visual rating on 0 to 100 scale (0 no effect, 100 complete control) after 13 to 15 days; for Plant response rating, Rice: Flood (flooded paddy test), 13 to 15 days; for Rice plant response rating: Flood, 31 g ai/ha, scale 0 to 100 (0 no effect, 100 complete control)
# Method in brief: as §1
# [3] = tested on: umbrella sedge (Cyperus difformis); assay: Test B flooded paddy test; conditions: for Plant response rating, Flood, Sedge, Umbrella: 250 g ai/ha, flooded paddy test, visual rating on 0 to 100 scale (0 no effect, 100 complete control) after 13 to 15 days; for Plant response rating, Sedge, Umbrella: Flood (flooded paddy test), 13 to 15 days; for Sedge, Umbrella plant response rating: Flood, 31 g ai/ha, scale 0 to 100 (0 no effect, 100 complete control)
# Method in brief: as §1
# [4] = tested on: wheat (Triticum aestivum); assay: Test A pre-/postemergence plant response; conditions: for Wheat plant response rating: visual injury, 0 to 100 scale (0 no effect, 100 complete control), approx. ten days
# Method in brief: (§2)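 Pre: directed soil spray on seeded loam/sand blend. Post: same formulation (non-phytotoxic solvent + surfactant) on 2–10 cm plants, 1–2 leaf stage. Greenhouse ~10 d; visual injury score 0–100 vs untreated.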
# [5] = tested on: barnyardgrass (Echinochloa crus-galli); assay: Test A pre-/postemergence plant response; conditions: for Barnyardgrass plant response rating: visual injury, 0 to 100 scale (0 no effect, 100 complete control), approx. ten days
# Method in brief: as §2
# [6] = tested on: pigweed (Amaranthus retroflexus); assay: Test A pre-/postemergence plant response; conditions: for Pigweed plant response rating: visual injury, 0 to 100 scale (0 no effect, 100 complete control), approx. ten days
# Method in brief: as §2
# [7] = tested on: giant foxtail (Setaria faberii); assay: Test A pre-/postemergence plant response; conditions: for Foxtail, Giant plant response rating: visual injury, 0 to 100 scale (0 no effect, 100 complete control), approx. ten days
# Method in brief: as §2
# [8] = tested on: large crabgrass (Digitaria sanguinalis); assay: Test A pre-/postemergence plant response; conditions: for Crabgrass, Large plant response rating: visual injury, 0 to 100 scale (0 no effect, 100 complete control), approx. ten days
# Method in brief: as §2
# [9] = tested on: morningglory (Ipomoea spp.); assay: Test A pre-/postemergence plant response; conditions: for Morningglory plant response rating: visual injury, 0 to 100 scale (0 no effect, 100 complete control), approx. ten days
# Method in brief: as §2
# corn (Zea mays) = assay: Test A pre-/postemergence plant response; conditions: for Corn plant response rating: visual injury, 0 to 100 scale (0 no effect, 100 complete control), approx. ten days
# Method in brief: as §2
# [10] = tested on: velvetleaf (Abutilon theophrasti); assay: Test A pre-/postemergence plant response; conditions: for Velvetleaf plant response rating: visual injury, 0 to 100 scale (0 no effect, 100 complete control), approx. ten days
# Method in brief: as §2
# [11] = 62 g ai/ha, scale of 0 to 100 where 0 is no effect and 100 is complete control
# [12] = 125 g ai/ha, scale 0 to 100, 0 is no effect, 100 is complete control
# [13] = Postemergence, 125 g ai/ha, 0 to 100 scale where 0 is no effect and 100 is complete control
# [14] = Preemergence, 125 g ai/ha, 0 to 100 scale, 0 = no effect, 100 = complete control
# [15] = Preemergence, 500 g ai/ha, 0 to 100 scale, 0 = no effect, 100 = complete control
structure (smiles),measurement,setting,value
Cc1cccc(-c2ncc(C(=O)C3=C(O)CCCC3=O)c(=O)n2C2CCCCC2)c1 [Compound 185],"Plant response rating, Flood, Barnyardgrass",[1],0
same,"Plant response rating, Barnyardgrass",[1]; [11],0
same,"Plant response rating, Barnyardgrass",[1]; [12],0
same,Barnyardgrass plant response rating,[1],0
same,"Plant response rating, Flood, Ducksalad",[2],75
same,"Plant response rating, Ducksalad",[2]; [11],70
same,"Plant response rating, Ducksalad",[2]; [12],75
same,Ducksalad plant response rating,[2],75
same,"Plant response rating, Flood, Rice",rice (Oryza sativa),0
same,"Plant response rating, Rice",rice (Oryza sativa); [11],0
same,"Plant response rating, Rice",rice (Oryza sativa); [12],0
same,Rice plant response rating,rice (Oryza sativa),0
same,"Plant response rating, Flood, Sedge, Umbrella",[3],60
same,"Plant response rating, Sedge, Umbrella",[3]; [11],75
same,"Plant response rating, Sedge, Umbrella",[3]; [12],65
same,"Sedge, Umbrella plant response rating",[3],65
same,"Plant response rating, Wheat",[4]; [13],0
same,Wheat plant response rating,"[4]; Postemergence, 500 g ai/ha",0
same,"Plant response rating, Wheat",[4]; [14],0
same,"Plant response rating, Wheat",[4]; [15],0
same,"Plant response rating, Barnyardgrass",[5]; [13],70
same,Barnyardgrass plant response rating,"[5]; Postemergence, 500 g ai/ha",90
same,"Plant response rating, Barnyardgrass",[5]; [14],0
same,"Plant response rating, Barnyardgrass",[5]; [15],50
same,"Plant response rating, Pigweed",[6]; [13],90
same,Pigweed plant response rating,"[6]; Postemergence, 500 g ai/ha",100
same,"Plant response rating, Pigweed",[6]; [14],0
same,"Plant response rating, Pigweed",[6]; [15],70
same,"Plant response rating, Foxtail, Giant",[7]; [13],50
same,"Foxtail, Giant plant response rating","[7]; Postemergence, 500 g ai/ha",80
same,"Plant response rating, Foxtail, Giant",[7]; [14],0
same,"Plant response rating, Foxtail, Giant",[7]; [15],50
same,"Plant response rating, Crabgrass, Large",[8]; [13],50
same,"Crabgrass, Large plant response rating","[8]; Postemergence, 500 g ai/ha",70
same,"Plant response rating, Crabgrass, Large",[8]; [14],0
same,"Plant response rating, Crabgrass, Large",[8]; [15],30
same,"Plant response rating, Morningglory",[9]; [13],100
same,Morningglory plant response rating,"[9]; Postemergence, 500 g ai/ha",100
same,"Plant response rating, Morningglory",[9]; [15],30
same,"Plant response rating, Corn",corn (Zea mays); [13],0
same,Corn plant response rating,"corn (Zea mays); Postemergence, 500 g ai/ha",50
same,"Plant response rating, Corn",corn (Zea mays); [14],0
same,"Plant response rating, Corn",corn (Zea mays); [15],0
same,"Plant response rating, Velvetleaf",[10]; [13],90
same,Velvetleaf plant response rating,"[10]; Postemergence, 500 g ai/ha",100
same,"Plant response rating, Velvetleaf",[10]; [14],0
same,"Plant response rating, Velvetleaf",[10]; [15],50
CCc1cccc(-c2ncc(C(=O)C3=C(O)CCCC3=O)c(=O)n2C2CCCCC2)c1 [Compound 194],"Plant response rating, Flood, Barnyardgrass",[1],15
same,"Plant response rating, Barnyardgrass",[1]; [11],0
same,"Plant response rating, Barnyardgrass",[1]; [12],10
same,Barnyardgrass plant response rating,[1],0
same,"Plant response rating, Flood, Ducksalad",[2],80
same,"Plant response rating, Ducksalad",[2]; [11],50
same,"Plant response rating, Ducksalad",[2]; [12],50
same,Ducksalad plant response rating,[2],40
same,"Plant response rating, Flood, Rice",rice (Oryza sativa),0
same,"Plant response rating, Rice",rice (Oryza sativa); [11],0
same,"Plant response rating, Rice",rice (Oryza sativa); [12],0
same,Rice plant response rating,rice (Oryza sativa),0
same,"Plant response rating, Flood, Sedge, Umbrella",[3],65
same,"Plant response rating, Sedge, Umbrella",[3]; [11],0
same,"Plant response rating, Sedge, Umbrella",[3]; [12],0
same,"Sedge, Umbrella plant response rating",[3],0
same,"Plant response rating, Wheat",[4]; [13],0
same,Wheat plant response rating,"[4]; Postemergence, 500 g ai/ha",0
same,"Plant response rating, Wheat",[4]; [14],0
same,"Plant response rating, Wheat",[4]; [15],0
same,"Plant response rating, Barnyardgrass",[5]; [13],90
same,Barnyardgrass plant response rating,"[5]; Postemergence, 500 g ai/ha",100
same,"Plant response rating, Barnyardgrass",[5]; [14],0
same,"Plant response rating, Barnyardgrass",[5]; [15],40
same,"Plant response rating, Pigweed",[6]; [13],100
same,Pigweed plant response rating,"[6]; Postemergence, 500 g ai/ha",100
same,"Plant response rating, Pigweed",[6]; [14],50
same,"Plant response rating, Pigweed",[6]; [15],100
same,"Plant response rating, Foxtail, Giant",[7]; [13],30
same,"Foxtail, Giant plant response rating","[7]; Postemergence, 500 g ai/ha",50
same,"Plant response rating, Crabgrass, Large",[8]; [13],60
same,"Crabgrass, Large plant response rating","[8]; Postemergence, 500 g ai/ha",90
same,"Plant response rating, Crabgrass, Large",[8]; [14],20
same,"Plant response rating, Crabgrass, Large",[8]; [15],40
same,"Plant response rating, Morningglory",[9]; [13],90
same,Morningglory plant response rating,"[9]; Postemergence, 500 g ai/ha",100
same,"Plant response rating, Morningglory",[9]; [15],20
same,"Plant response rating, Corn",corn (Zea mays); [13],0
same,Corn plant response rating,"corn (Zea mays); Postemergence, 500 g ai/ha",10
same,"Plant response rating, Corn",corn (Zea mays); [14],0
same,"Plant response rating, Corn",corn (Zea mays); [15],0
same,"Plant response rating, Velvetleaf",[10]; [13],100
same,Velvetleaf plant response rating,"[10]; Postemergence, 500 g ai/ha",100
same,"Plant response rating, Velvetleaf",[10]; [14],30
same,"Plant response rating, Velvetleaf",[10]; [15],70
